Measured values from paper PMC12377202, “Design, synthesis, and cytotoxic evaluation of quinazoline-based derivatives as VEGER-2 inhibitors: comparative study against EGFR kinase activity, induction of apoptosis, and molecular docking study” (RSC Advances, 2025).

Experiments:
MCF-7 = assay: MTT anti-proliferative assay, MCF-7; assay type: cell-based, human
IL-6R = IL-6R level in HepG-2 cells; assay type: cell-based, human
Method: (§1) All synthesized compounds were tested at their cytotoxic concentrations in HepG-2 cells for analysis of gene expression levels of apoptotic markers caspase-3, caspase-9, TNF-α, and IL-6 proteins, and only two active compounds were tested for BAX and Bcl-2 proteins.
(§2) through Flow cytometric analysis.
(§3) Pellets were collected again and incubated with
(§4) Total RNA from vehicle-treated
(§5) (Thermo Scientific, USA).
(§6) All experiments were performed in […]

VEGFR-2 = VEGFR-2 (Homo sapiens, UniProt P35968); assay: In vitro VEGFR-2 inhibitory assay (ELISA kit); conditions: VEGFR-2 kinase
K-562 = assay: MTT anti-proliferative assay, K-562; assay type: cell-based, human
caspase-3 = assay: Caspase-3 expression level in HepG-2 cells; assay type: cell-based, human; conditions: for Caspase-3 ± SE: HepG-2, at IC50 concentrations, control 0.460
Method: as §1, §2, §3, §4, §5, §6

TNF-alpha = TNF-alpha level in HepG-2 cells; assay type: cell-based, human; conditions: for TNF-alpha ±SE: control 43.48
Method: as §1, §2, §3, §4, §5, §6

EGFR = EGFR (Homo sapiens, UniProt P00533); assay: EGFR kinase inhibition assay (ELISA kit)
caspase-9 = assay: Caspase-9 expression level in HepG-2 cells; assay type: cell-based, human; conditions: for Caspase-9 ± SE: HepG-2, at IC50 concentrations, control 11.01
Method: as §1, §2, §3, §4, §5, §6

HepG-2 = assay: MTT anti-proliferative assay, HepG-2; assay type: cell-based, human

Chain of VEGFR-2 (P35968 20-1356): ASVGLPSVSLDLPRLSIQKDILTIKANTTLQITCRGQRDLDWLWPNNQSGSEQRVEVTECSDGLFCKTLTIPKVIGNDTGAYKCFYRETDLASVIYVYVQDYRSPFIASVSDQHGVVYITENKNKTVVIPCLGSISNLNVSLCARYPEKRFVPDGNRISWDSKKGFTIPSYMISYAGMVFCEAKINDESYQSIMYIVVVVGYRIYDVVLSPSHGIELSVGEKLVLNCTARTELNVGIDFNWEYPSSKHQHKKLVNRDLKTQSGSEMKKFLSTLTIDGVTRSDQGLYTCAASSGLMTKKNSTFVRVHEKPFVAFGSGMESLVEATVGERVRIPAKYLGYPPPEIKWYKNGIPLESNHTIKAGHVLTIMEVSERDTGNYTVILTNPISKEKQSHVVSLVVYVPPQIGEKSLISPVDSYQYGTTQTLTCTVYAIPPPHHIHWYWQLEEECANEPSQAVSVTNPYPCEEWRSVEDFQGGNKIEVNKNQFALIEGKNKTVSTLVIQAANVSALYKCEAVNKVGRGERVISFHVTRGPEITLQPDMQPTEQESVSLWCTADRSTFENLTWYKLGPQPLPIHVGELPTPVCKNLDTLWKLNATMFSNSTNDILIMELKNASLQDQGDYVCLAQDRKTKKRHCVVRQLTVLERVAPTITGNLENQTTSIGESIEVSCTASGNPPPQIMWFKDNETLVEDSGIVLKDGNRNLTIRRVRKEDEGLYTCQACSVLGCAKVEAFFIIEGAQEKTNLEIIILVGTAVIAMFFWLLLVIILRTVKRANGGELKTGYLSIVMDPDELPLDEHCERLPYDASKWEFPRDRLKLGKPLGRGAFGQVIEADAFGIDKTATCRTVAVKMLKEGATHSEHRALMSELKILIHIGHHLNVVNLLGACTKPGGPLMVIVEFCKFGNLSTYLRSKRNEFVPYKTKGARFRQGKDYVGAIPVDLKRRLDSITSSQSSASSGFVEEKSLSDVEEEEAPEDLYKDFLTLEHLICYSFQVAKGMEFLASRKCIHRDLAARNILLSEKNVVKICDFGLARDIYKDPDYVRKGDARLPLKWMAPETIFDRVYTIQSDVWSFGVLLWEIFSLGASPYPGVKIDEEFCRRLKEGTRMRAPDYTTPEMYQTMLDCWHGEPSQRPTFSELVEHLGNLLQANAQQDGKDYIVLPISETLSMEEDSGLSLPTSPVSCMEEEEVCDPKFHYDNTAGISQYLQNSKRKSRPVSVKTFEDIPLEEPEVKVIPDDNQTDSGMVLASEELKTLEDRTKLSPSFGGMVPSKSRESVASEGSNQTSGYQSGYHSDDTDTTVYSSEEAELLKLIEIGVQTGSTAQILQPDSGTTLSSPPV

Substance: N-(2,6-Dichlorophenyl)-2-(7-nitro-4-oxoquinazolin-3(4H)-yl)acetamide [9d]
- Toxicity % (MCF-7; MCF-7, 0.195 umol): 49.43%
- Viability % (MCF-7; MCF-7, 0.195 umol): 50.57%
- Toxicity % (MCF-7; MCF-7, 0.391 umol): 61.52%
- Viability % (MCF-7; MCF-7, 0.391 umol): 38.48%
- Toxicity % (MCF-7; MCF-7, 0.781 umol): 74.05%
- Viability % (MCF-7; MCF-7, 0.781 umol): 25.95%
- Toxicity % (MCF-7; MCF-7, 1.563 umol): 65.74%
- Toxicity % (MCF-7; MCF-7, 3.125 umol): 91.03%
- Viability % (MCF-7; MCF-7, 3.125 umol): 8.971%
- Toxicity % (MCF-7; MCF-7, 6.25 umol): 92.04%
- Viability % (MCF-7; MCF-7, 6.25 umol): 7.96%
- Toxicity % (MCF-7; MCF-7, 12.5 umol): 93.58%
- Viability % (MCF-7; MCF-7, 12.5 umol): 6.42%
- Toxicity % (MCF-7; MCF-7, 25 umol): 92.88%
- Viability % (MCF-7; MCF-7, 25 umol): 7.124%
- IC50 (MCF-7; MTT, MCF-7, read-out: Cytotoxicity against cancer cells IC50 MCF-7): 204 ± 2.6 nM
- IL-6R ± SE (IL-6R; HepG-2, at IC50 concentrations, control 44.10): 16.64 ± 0.83 ng/L
- IL-6R protein level (IL-6R; HepG-2, control 44.10%): 16.64 ng/L
- IL-6 ±SE (IL-6R; raw data, HepG2, control 44.10): 10.13 ng/L
- Activity % (VEGFR-2; HepG2): 19.818%
- Inhibition % (VEGFR-2; HepG2): 80.182%
- Activity % (VEGFR-2; K-562): 41.248%
- Inhibition % (VEGFR-2; K-562): 58.752%
- Activity % (VEGFR-2; MCF7): 52.958%
- Inhibition % (VEGFR-2; MCF7): 47.042%
- Toxicity % (K-562; K-562, 0.195 umol): 0.4516%
- Viability % (K-562; K-562, 0.195 umol): 99.55%
- Toxicity % (K-562; K-562, 0.391 umol): 4.146%
- Viability % (K-562; K-562, 0.391 umol): 95.85%
- Toxicity % (K-562; K-562, 0.781 umol): 28.41%
- Viability % (K-562; K-562, 0.781 umol): 71.59%
- Toxicity % (K-562; K-562, 1.563 umol): 39.82%
- Viability % (K-562; K-562, 1.563 umol): 60.18%
- Toxicity % (K-562; K-562, 3.125 umol): 62.19%
- Viability % (K-562; K-562, 3.125 umol): 37.81%
- Toxicity % (K-562; K-562, 6.25 umol): 87.81%
- Viability % (K-562; K-562, 6.25 umol): 12.19%
- Toxicity % (K-562; K-562, 12.5 umol): 90.52%
- Viability % (K-562; K-562, 12.5 umol): 9.483%
- Toxicity % (K-562; K-562, 25 umol): 92.57%
- Viability % (K-562; K-562, 25 umol): 7.43%
- IC50 (K-562; MTT, K-562, read-out: Cytotoxicity against cancer cells IC50 K-562): 2274 ± 3.5 nM
- Caspase-3 ± SE (caspase-3): 0.68 ± 0.013 ng/mL
- Caspase-3 ± SE (caspase-3; listed as N3): 0.68 ng/mL
- caspase-3 expression level, fold increase (caspase-3; HepG-2, vs control cells): 1.5 fold
- TNF-alpha ±SE (TNF-alpha; HepG-2, at IC50 concentrations): 10.2 ± 1.53 ng/L
- TNF-α expression level (TNF-alpha; HepG-2, control 43.48%): 10.2 ng/L
- TNF-alpha ±SE (TNF-alpha; raw data, HepG2): 16.01 ng/L
- Activity % (EGFR; HepG2): 18.428%
- Inhibition % (EGFR; HepG2): 81.572%
- Activity % (EGFR; K-562): 16.638%
- Inhibition % (EGFR; K-562): 83.362%
- Activity % (EGFR; MCF7): 30.226%
- Inhibition % (EGFR; MCF7): 69.774%
- Caspase-9 ± SE (caspase-9): 43.52 ± 3.69 ng/L
- Caspase-9 ± SE (caspase-9; listed as N3): 43.52 ng/L
- caspase-9 expression level, fold increase (caspase-9; HepG-2, vs control cells): 3.95 fold
- Toxicity % (HepG-2; HepG-2, 0.195 ug/ml): 39.23%
- Viability % (HepG-2; HepG-2, 0.195 ug/ml): 60.77%
- Toxicity % (HepG-2; HepG-2, 0.391 ug/ml): 55.68%
- Viability % (HepG-2; HepG-2, 0.391 ug/ml): 44.32%
- Toxicity % (HepG-2; HepG-2, 0.781 ug/ml): 70.62%
- Viability % (HepG-2; HepG-2, 0.781 ug/ml): 29.38%
- Toxicity % (HepG-2; HepG-2, 1.563 ug/ml): 85.02%
- Viability % (HepG-2; HepG-2, 1.563 ug/ml): 14.98%
- Toxicity % (HepG-2; HepG-2, 3.125 ug/ml): 89.27%
- Viability % (HepG-2; HepG-2, 3.125 ug/ml): 10.73%
- Toxicity % (HepG-2; HepG-2, 6.25 ug/ml): 91.87%
- Viability % (HepG-2; HepG-2, 6.25 ug/ml): 8.132%
- Toxicity % (HepG-2; HepG-2, 12.5 ug/ml): 93.19%
- Viability % (HepG-2; HepG-2, 12.5 ug/ml): 6.813%
- Toxicity % (HepG-2; HepG-2, 25 ug/ml): 93.7%
- Viability % (HepG-2; HepG-2, 25 ug/ml): 6.3%
- IC50 (HepG-2; MTT, HepG-2, read-out: Cytotoxicity against cancer cells IC50 HepG-2): 322.7 ± 2.9 nM
